According to patent US12303497B2, “Anti-androgens for the treatment of metastatic castration-sensitive prostate cancer” (priority 2019, dated 2025):

Test system: patients with metastatic castration-sensitive prostate cancer (mCSPC)
[1] = within 30 days of last dose, n = 524

Structure (SMILES): CNC(=O)c1ccc(N2C(=S)N(c3cnc(C#N)c(C(F)(F)F)c3)C(=O)C23CCC3)cc1F [Apalutamide, 4-[7-(6-cyano-5-trifluoromethylpyridin-3-yl)-8-oxo-6-thioxo-5,7-diazaspiro[3.4]oct-5-yl]-2-fluoro-N-methylbenzamide]
- AE leading to dose interruption: Syncope (Grade ≥3): 1 (0.2) no. (%)
- AE leading to dose interruption: Thrombocytopenia (Grade ≥3): 0 no. (%)
- AE leading to dose interruption: Tongue ulceration (Grade ≥3): 0 no. (%)
- AE leading to dose interruption: Urethral stenosis (Grade ≥3): 0 no. (%)
- AE leading to dose interruption: Urinary incontinence (Grade ≥3): 0 no. (%)
- AE leading to dose interruption: Urinary retention (Grade ≥3): 2 (0.4) no. (%)
- AE leading to dose interruption: Urinary tract obstruction (Grade ≥3): 1 (0.2) no. (%)
- AE leading to dose interruption: Vertigo (Grade ≥3): 1 (0.2) no. (%)
- AE leading to dose interruption: Vomiting (Grade ≥3): 0 no. (%)
- AE leading to dose interruption: Weight increased (Grade ≥3): 0 no. (%)
- AE leading to dose reduction: Aspartate aminotransferase or alanine aminotransferase increased (Grade ≥3): 0 no. (%)
- AE leading to dose reduction: Asthenia (Grade ≥3): 0 no. (%)
- AE leading to dose reduction: Cognitive disorder (Grade ≥3): 1 (0.2) no. (%)
- AE leading to dose reduction: Dehydration (Grade ≥3): 0 no. (%)
- AE leading to dose reduction: Fatigue (Grade ≥3): 2 (0.4) no. (%)
- AE leading to dose reduction: General physical health deterioration (Grade ≥3): 1 (0.2) no. (%)
- AE leading to dose reduction: Headache (Grade ≥3): 0 no. (%)
- AE leading to dose reduction: Hot flush (Grade ≥3): 0 no. (%)
- AE leading to dose reduction: Hypertension (Grade ≥3): 1 (0.2) no. (%)
- AE leading to dose reduction: Lethargy (Grade ≥3): 0 no. (%)
- AE leading to dose reduction: Neutropenia (Grade ≥3): 2 (0.4) no. (%)
- AE leading to dose reduction: Pain (Grade ≥3): 0 no. (%)
- AE leading to dose reduction: Performance status decreased (Grade ≥3): 0 no. (%)
- AE leading to dose reduction: Rash (grouped term) (Grade ≥3): 11 (2.1) no. (%)
- AE leading to dose reduction: Vertigo (Grade ≥3): 1 (0.2) no. (%)
- AE leading to dose reduction: Weight decreased (Grade ≥3): 1 (0.2) no. (%)
- AE of special interest: Fall (Grade ≥3): 4 (0.8) no. (%)
- AE of special interest: Fracture (grouped term) (Grade ≥3): 7 (1.3) no. (%)
- AE of special interest: Hypothyroidism (grouped term) (Grade ≥3): 0 no. (%)
- AE of special interest: Rash (grouped term) (Grade ≥3): 33 (6.3) no. (%)
- AE of special interest: Seizure (grouped term) (Grade ≥3): 1 (0.2) no. (%)
- Patients with treatment-emergent adverse events leading to discontinuation (Grade ≥3): 26 (5.0) no. (%)
- Patients with treatment-emergent adverse events leading to dose reduction (Grade ≥3): 19 (3.6) no. (%)
- Patients with treatment-emergent events leading to dose interruption (Grade ≥3): 68 (13.0) no. (%)
- TEAE: Anemia (Grade ≥3): 9 (1.7) no. (%)
- TEAE: Arthralgia (Grade ≥3): 2 (0.4) no. (%)
- TEAE: Asthenia (Grade ≥3): 10 (1.9) no. (%)
- TEAE: Back pain (Grade ≥3): 12 (2.3) no. (%)
- TEAE: Blood alkaline phosphatase increased (Grade ≥3): 2 (0.4) no. (%)
- TEAE: Bone pain (Grade ≥3): 6 (1.1) no. (%)
- TEAE: Constipation (Grade ≥3): 0 no. (%)
- TEAE: Fatigue (Grade ≥3): 8 (1.5) no. (%)
- TEAE: Hot flush (Grade ≥3): 0 no. (%)
- TEAE: Hypertension (Grade ≥3): 44 (8.4) no. (%)
- TEAE: Pain in extremity (Grade ≥3): 3 (0.6) no. (%)
- TEAE: Pruritus (Grade ≥3): 1 (0.2) no. (%)
- TEAE: Rash generalized (Grade ≥3): 14 (2.7) no. (%)
- TEAE: Urinary retention (Grade ≥3): 0 no. (%)
- TEAE: Weight increased (Grade ≥3): 6 (1.1) no. (%)
- Patients who died as the result of an adverse event (Ten patients): 1.9%
- Hypothyroidism reported (all events were grade 1 or 2): 6.5%
- AE leading to discontinuation: Suicide (in vivo): 0 no. (%)
- AE leading to dose interruption: Acute kidney injury (in vivo): 1 (0.2) no. (%)
- AE leading to dose interruption: Acute respiratory failure (in vivo): 1 (0.2) no. (%)
- AE leading to dose interruption: Allergy to chemicals (in vivo): 1 (0.2) no. (%)
- AE leading to dose interruption: Anemia (in vivo): 0 no. (%)
- AE leading to dose interruption: Angina unstable (in vivo): 0 no. (%)
- Frequency of grade 3 and 4 events (in vivo): 42.2%
- Frequency of serious adverse events (in vivo): 19.8%
- Grade 3 rashes (in vivo): 6.3%
- Ischemic events led to death (in vivo): two
- Ischemic heart disease reported (in vivo): 4.4%
- Median time to onset of rash (in vivo): 81 days
- Most common event considered related to apalutamide: rash of any type (in vivo): 6.3%
- Rash of any grade (treatment-emergent skin rash) (in vivo): 27.1%
- Stevens-Johnson syndrome or toxic epidermal necrolysis (in vivo): No Stevens-Johnson syndrome or toxic epidermal necrolysis was reported
- All deaths within 30 days of last dose (investigator reported, n = 524): 18 (3.4) no. (%)
- AE leading to death: Acute coronary syndrome (n = 524): 0 no. (%)
- AE leading to death: Acute kidney injury (n = 524): 2 (0.4) no. (%)
- AE leading to death: Acute myocardial infarction (n = 524): 1 (0.2) no. (%)
- AE leading to death: Cardiac failure (n = 524): 0 no. (%)
- AE leading to death: Cardio-respiratory arrest (n = 524): 1 (0.2) no. (%)
- AE leading to death: Cardiogenic shock (n = 524): 1 (0.2) no. (%)
- AE leading to death: Cerebrovascular accident (n = 524): 1 (0.2) no. (%)
- AE leading to death: Death (n = 524): 0 no. (%)
- AE leading to death: Hypothermia (n = 524): 0 no. (%)
- AE leading to death: Intracranial hemorrhage (n = 524): 0 no. (%)
- AE leading to death: Myocardial infarction (n = 524): 1 (0.2) no. (%)
- AE leading to death: Pulmonary embolism (n = 524): 0 no. (%)
- AE leading to death: Respiratory failure (n = 524): 1 (0.2) no. (%)
- AE leading to death: Sepsis (n = 524): 0 no. (%)
- AE leading to death: Subdural hemorrhage (n = 524): 0 no. (%)
- AE leading to death: Sudden cardiac death (n = 524): 1 (0.2) no. (%)
- AE leading to death: Sudden death (n = 524): 0 no. (%)
- AE leading to death: Suicide (n = 524): 0 no. (%)
- AE leading to death: Urosepsis (n = 524): 0 no. (%)
- AE leading to death: Vascular rupture (n = 524): 0 no. (%)
- Adverse event leading to death (n = 524): 10 (1.9) no. (%)
- Any adverse event (n = 524): 507 (96.8) no. (%)
- Any adverse event leading to treatment discontinuation (n = 524): 42 (8.0) no. (%)
- Any serious adverse event (n = 524): 104 (19.8) no. (%)
- Grade 3 or 4 adverse event (n = 524): 221 (42.2) no. (%)
- Patients with adverse events as the primary reason for discontinuation (n = 525): 39 (7.4) no. (%)
- Patients with adverse events leading to discontinuation (n = 525 (Table 5)): 42 (8.0) no. (%)
- Death due to adverse event [1]: 10 (1.9) no. (%)
- Death due to prostate cancer [1]: 8 (1.5) no. (%)
